The record followed here is patent publication US20090062253A1, “HETEROCYCLODIAZEPINE CANNABINOID RECEPTOR MODULATORS FOR TREATMENT OF DISEASE” (KALYPSYS, INC., priority 2007, published 2009).

For test [1], the target named is T1, Human CB2 (Homo sapiens, UniProt P34972).
T1 construct: expressed in transfected cells; membrane preparation
Briefly: Human CB2 Radioligand Binding Assay. The conditions noted are these: membranes from stably transfected CHO CB2 cells; competition with [3H] CP-55,940; read-out: CB2 Ligand Binding Asssay. On the procedure:
(§1) This receptor binding filtration assay measures the receptor-ligand interactions of compounds by measuring ability to compete with a radiolabeled control ligand. Reactions were performed in 96 deep-well plate (Costar 3961) with a final volume of 600 ul. Compounds were added to each well either in single point (10 uM final) or dose-response. Compounds were delivered in DMSO or further diluted in incubation buffer to a final assay DMSO concentration of 1%. Incubation buffer (50 mM Tris-HCl pH 7.4, 2.5 mM EGTA, 5 mM MgCl2, 5.0 mg/ml fatty acid free BSA) was added to each well. Following buffer addition, [^3H] CP-55,940 was added. Tritiated CP-55,940 (Perkin Elmer) was used at the Kd determined from prior saturation binding experiments conducted on each lot of membranes. Membrane preparations from stably transfected CHO CB2 cells were added and the reaction was incubated for 90 minutes at 30° C. Unifilter GF/C filtration plates (Perkin Elmer) were pre-wet with 0.05% polyethylenimine. Samples were transferred to Unifilter plates and separation of unbound radioligand was achieved using a vacuum manifold (Millipore). Following thorough washing with 5 ml/well ice-cold wash buffer (50 mM Tris-HCl pH 7.4, 2.5 mM EGTA, 5 mM MgCl2, 0.5 mg/ml fatty acid free BSA), filterplates were dried completely. Betaplate Scint Scintillation cocktail (25 ul, Perkin Elmer) was applied and plates were read using Microbeta Trilux (Wallac). Data analysis was performed in Spotfire. Activity of the positive control (100 nM CP-55,940) was set as 100% efficacy.
Stable recombinant Human CB2-CHO cell membranes were prepared as follows: Chinese Hamster Ovarian (CHO) cells stably expressing human cannabinoid receptor type 2 were grown to ˜90% confluence in 15×100 mm culture dishes under puromycin selection (5 ug/ml) Cells were harvested from culture flasks using a cell scraper, were washed once with cold phosphate-buffered saline (calcium and magnesium free) and pelleted by centrifugation at 400 g for 5 min at 4° C. Cell pellet was washed once with cold phosphate-buffered saline and centrifuged again at 400×g for 5 min at 4° C. The pellet was suspended in ice-cold lysis buffer (10 mM Tris-HCl, 0.1 mM EDTA, containing […], pH 7.5) and homogenized in a chilled 7 ml glass dounce homogenizer using 50 strokes. The homogenate was centrifuged at 400 g for 15 min at 4° C. The cloudy supernatant was collected and centrifuged at 41000 g for 30 min at 4° C. The resulting pellet was washed with ice-cold sucrose-free lysis buffer and centrifuged again at 41000 g for 30 min at 4° C. The membrane pellet was suspended in sucrose-free storage buffer (10 mm Tris-HCl, 0.1 mM EDTA, pH 7.5) to a concentration of 2-3 mg protein/ml. Aliquots were flash frozen in liquid nitrogen and stored at −80° C. Concentration was determined using Dc protein assay kit (Bio-Rad).

Test [2] has as its target T2, human cannabinoid receptor type 1 (Homo sapiens, UniProt P21554).
T2 construct: purchased Perkin Elmer RBHCB1M; host or cells: HEK 293 EBNA cells
Briefly: Human CB1 Radioligand Binding Assay (basis of selectivity CB2 vs. CB1). How it is done: as §1
The CB1 binding assay was performed as described above except that HEK 293 EBNA cells expressing human cannabinoid receptor type 1 (Perkin Elmer cat #RBHCB1M) were used according the manufacturer's instructions. The incubation buffer was composed of 50 mM Tris-HCl pH 7.4, 2.5 mM EDTA, 5 mM MgCl2, 5.0 mg/ml fatty acid free BSA and the wash buffer was composed of 50 mM Tris-HCl pH 7.4, 2.5 mM EDTA, 5 mM MgCl2, 0.5 mg/ml fatty acid free BSA. Activity of the positive control (100 nM CP-55,940) was set as 100% efficacy.

T2 sequence (P21554 whole entry): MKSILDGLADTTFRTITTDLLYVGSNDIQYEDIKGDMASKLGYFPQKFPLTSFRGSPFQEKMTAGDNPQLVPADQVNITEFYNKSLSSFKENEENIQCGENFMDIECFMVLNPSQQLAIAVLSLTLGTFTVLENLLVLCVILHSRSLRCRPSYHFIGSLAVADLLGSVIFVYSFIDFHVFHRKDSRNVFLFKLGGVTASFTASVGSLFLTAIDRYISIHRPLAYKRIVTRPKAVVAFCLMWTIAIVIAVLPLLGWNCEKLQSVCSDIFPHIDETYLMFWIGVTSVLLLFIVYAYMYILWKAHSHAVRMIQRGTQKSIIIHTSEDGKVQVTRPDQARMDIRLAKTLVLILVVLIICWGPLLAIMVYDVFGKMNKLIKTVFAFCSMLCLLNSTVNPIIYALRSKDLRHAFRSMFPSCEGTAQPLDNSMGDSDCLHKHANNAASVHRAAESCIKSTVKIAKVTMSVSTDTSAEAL
T1 sequence (P34972 whole entry): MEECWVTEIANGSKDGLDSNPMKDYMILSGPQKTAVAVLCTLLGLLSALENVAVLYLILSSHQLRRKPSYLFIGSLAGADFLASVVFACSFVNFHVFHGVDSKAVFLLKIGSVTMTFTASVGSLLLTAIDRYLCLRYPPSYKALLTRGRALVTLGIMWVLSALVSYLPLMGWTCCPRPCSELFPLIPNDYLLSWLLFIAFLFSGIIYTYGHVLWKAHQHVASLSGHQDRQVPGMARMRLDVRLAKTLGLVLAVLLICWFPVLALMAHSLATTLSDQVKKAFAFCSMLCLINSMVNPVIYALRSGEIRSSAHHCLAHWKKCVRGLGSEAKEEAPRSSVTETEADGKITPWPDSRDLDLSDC

Take `CC(C)(C)c1ccc(C2c3cccn3CCC2C(=O)Nc2ccc(F)c(F)c2)cc1` (mixture of isomers) [Example 95, 8-(4-tert-Butylphenyl)-N-(3,4-difluorophenyl)-5,6,7,8-tetrahydroindolizine-7-carboxamide]: in test [1], the IC50 (radioligand displacement) was less than 1000 nM. In test [2], the “Selectivity, CB2 vs. CB1” value was “+ (+ indicates > 10-fold)”. For `O=C(Nc1ccc(F)cc1F)C1CCn2cccc2C1c1ccccc1` (mixture of isomers) [Example 100, N-(2,4-Difluorophenyl)-8-phenyl-5,6,7,8-tetrahydroindolizine-7-carboxamide], in that order: greater than 1000 nM and “− (− indicates < 10-fold)”. Turning to `O=C(Nc1ccc(F)c(F)c1)C1CCn2cccc2C1c1ccccc1` (mixture of isomers) [Example 101, N-(3,4-Difluorophenyl)-8-phenyl-5,6,7,8-tetrahydroindolizine-7-carboxamide], the IC50 (radioligand displacement) in test [1] was greater than 1000 nM. In addition, the “Selectivity, CB2 vs. CB1” value in test [2] is on record as “− (− indicates < 10-fold)”. For `O=C(Nc1ccc(Cl)cc1)C1CCn2cccc2C1c1ccccc1` (mixture of isomers) [Example 102, N-(4-Chlorophenyl)-8-phenyl-5,6,7,8-tetrahydroindolizine-7-carboxamide], in that order: greater than 1000 nM and “− (− indicates < 10-fold)”. Turning to `O=C(Nc1ccc(C(F)(F)F)cc1)C1CCn2cccc2C1c1ccccc1` (mixture of isomers) [Example 103, 8-Phenyl-N-(4-(trifluoromethyl)phenyl)-5,6,7,8-tetrahydroindolizine-7-carboxamide], the IC50 (radioligand displacement) in test [1] was greater than 1000 nM. In addition, in test [2], the “Selectivity, CB2 vs. CB1” value is given as “− (− indicates < 10-fold)”. For `O=C(Nc1ccc(OC(F)(F)F)cc1)C1CCn2cccc2C1c1ccccc1` (mixture of isomers) [Example 104, 8-Phenyl-N-(4-(trifluoromethoxy)phenyl)-5,6,7,8-tetrahydroindolizine-7-carboxamide], in that order: greater than 1000 nM and “− (− indicates < 10-fold)”. For `CC(C)(C)c1ccc(C2c3cccn3CCCC2NC(=O)Nc2ccc(Cl)cc2)cc1` (mixture of isomers) [Example 115, 1-(9-(4-tert-Butylphenyl)-6,7,8,9-tetrahydro-5H-pyrrolo[1,2-a]azepin-8-yl)-3-(4-chlorophenyl)urea], in that order: greater than 1000 nM and “+ (+ indicates > 10-fold)”.

For `CC(C)(C)c1ccc(C2c3cccn3CCCC2NC(=O)Nc2ccc(F)cc2F)cc1` (mixture of isomers) [Example 116, 1-(9-(4-tert-Butylphenyl)-6,7,8,9-tetrahydro-5H-pyrrolo[1,2-a]azepin-8-yl)-3-(2,4-difluorophenyl)urea], the IC50 (radioligand displacement) in test [1] was less than 1000 nM. Further, the “Selectivity, CB2 vs. CB1” value in test [2] was “− (− indicates < 10-fold)”. For `CC(C)(C)c1ccc(C2c3cccn3CCCC2NC(=O)Nc2ccc(F)c(F)c2)cc1` (mixture of isomers) [Example 117, 1-(9-(4-tert-Butylphenyl)-6,7,8,9-tetrahydro-5H-pyrrolo[1,2-a]azepin-8-yl)-3-(3,4-difluorophenyl)urea], in that order: less than 1000 nM and “− (− indicates < 10-fold)”. For `CC(C)(C)c1ccc(C2c3cccn3CCCC2NC(=O)Nc2ccc(C(F)(F)F)cc2)cc1` (mixture of isomers) [Example 122, 1-(9-(4-tert-Butylphenyl)-6,7,8,9-tetrahydro-5H-pyrrolo[1,2-a]azepin-8-yl)-3-(4-(trifluoromethyl)phenyl)urea], in that order: less than 1000 nM and “+ (+ indicates > 10-fold)”. For `CC(C)(C)c1ccc(CC2[C@@H]3CCCN3CCCN2C(=O)Nc2ccc(F)cc2F)cc1` (mixture of isomers) [Example 124, (9aS)-1-(4-tert-Butylbenzyl)-N-(2,4-difluorophenyl)hexahydro-1H-pyrrolo[1,2-a][1,4]diazepine-2(3H)-carboxamide], in that order: greater than 1000 nM and “− (− indicates < 10-fold)”. As for `CC(C)(C)c1ccc(CC2[C@@H]3CCCN3CCCN2C(=O)Nc2ccc(Cl)cc2)cc1` (mixture of isomers) [Example 125, (9aS)-1-(4-tert-Butylbenzyl)-N-(4-chlorophenyl)hexahydro-1H-pyrrolo[1,2-a][1,4]diazepine-2(3H)-carboxamide], the IC50 (radioligand displacement) in test [1] is greater than 1000 nM. In test [2], the “Selectivity, CB2 vs. CB1” value is given as “− (− indicates < 10-fold)”. Take `CC(C)(C)c1ccc(CC2[C@@H]3CCCN3CCCN2C(=O)Nc2ccccc2)cc1` (mixture of isomers) [Example 126, (9aS)-1-(4-tert-Butylbenzyl)-N-phenylhexahydro-1H-pyrrolo[1,2-a][1,4]diazepine-2(3H)-carboxamide]: the IC50 (radioligand displacement) in test [1] is greater than 1000 nM. Further, the “Selectivity, CB2 vs. CB1” value in test [2] is listed as “− (− indicates < 10-fold)”. For `CC(C)(C)c1ccc(CC2[C@@H]3CCCN3CCCN2C(=O)Nc2ccc(F)cc2)cc1` (mixture of isomers) [Example 127, (9aS)-1-(4-tert-Butylbenzyl)-N-(4-fluorophenyl)hexahydro-1H-pyrrolo[1,2-a][1,4]diazepine-2(3H)-carboxamide], in that order: greater than 1000 nM and “− (− indicates < 10-fold)”. As for `O=C(Nc1ccc(F)cc1F)[C@H]1CCCn2cccc2[C@@H]1c1ccccc1` (relative stereo) [Example 105, (8,9-trans)-N-(2,4-Difluorophenyl)-9-phenyl-6,7,8,9-tetrahydro-5H-pyrrolo[1,2-a]azepine-8-carboxamide], the IC50 (radioligand displacement) in test [1] was greater than 1000 nM. Further, the “Selectivity, CB2 vs. CB1” value in test [2] is “− (− indicates < 10-fold)”. Turning to `CC(C)(C)c1ccc(C2c3cccn3CCN2C(=O)Nc2ccc(Cl)cc2Cl)cc1` (stereo not shown) [Example 3, 1-(4-tert-Butylphenyl)-N-(2,4-dichlorophenyl)-3,4-dihydropyrrolo[1,2-a]pyrazine-2(1H)-carboxamide], the IC50 (radioligand displacement) in test [1] was less than 1000 nM. On the same count and under the same terms, under `CC(C)(C)c1ccc(C2NCCCn3cccc32)cc1` (stereo not shown) [Example 6, 1-(4-tert-Butylphenyl)-2,3,4,5-tetrahydro-1H-pyrrolo[1,2-a][1,4]diazepine] stands greater than 1000 nM; under `Cc1ccc(C2c3cccn3CCCN2C(=O)Nc2ccc(Cl)cc2Cl)cc1` (stereo not shown) [Example 9, N-(2,4-Dichlorophenyl)-1-p-tolyl-4,5-dihydro-1H-pyrrolo[1,2-a][1,4]diazepine-2(3H)-carboxamide], less than 1000 nM.

Regarding `O=C(Nc1ccc(F)cc1F)N1CCCn2cccc2C1c1ccc(OC(F)(F)F)cc1` (stereo not shown) [Example 15, N-(2,4-Difluorophenyl)-1-(4-(trifluoromethoxy)phenyl)-4,5-dihydro-1H-pyrrolo[1,2-a][1,4]diazepine-2(3H)-carboxamide], in test [1], the IC50 (radioligand displacement) was less than 1000 nM.

For `O=C(Nc1ccc(Cl)cc1Cl)N1CCCn2cccc2C1c1ccc(OC(F)(F)F)cc1` (stereo not shown) [Example 16], the IC50 (radioligand displacement) in test [1] was greater than 1000 nM. Still for that read-out and setting: the figure for `O=C(Nc1ccc(C(F)(F)F)cc1)C1=C(c2ccccc2)c2cccn2CC1` [Example 68, 8-Phenyl-N-(4-(trifluoromethyl)phenyl)-5,6-dihydroindolizine-7-carboxamide] is greater than 1000 nM; for `O=C(Nc1ccc(F)cc1F)C1=C(c2ccccc2)c2cccn2CC1` [Example 70, N-(2,4-Difluorophenyl)-8-phenyl-5,6-dihydroindolizine-7-carboxamide] it is greater than 1000 nM.
